How the values were obtained:
ORYSAT (Rice, Tebonnet) [1] = experiment: Postemergence herbicidal evaluation; assay type: in vivo, Oryza sativa, (L.) Tebonnet
Summary of the method: (§1)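 Visual 0–9 injury scores versus control plants, covering stand, vigour, malformation, size, chlorosis and general appearance, taken four to five weeks post-spray and averaged over replicate tests. Plants were sprayed at roughly two weeks old and held on greenhouse benches.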

ZEAMX (Corn, Field) = experiment: Postemergence herbicidal evaluation; assay type: in vivo, Zea mays, L.
Summary of the method: as §1

[2] = tested on: ABUTH (Abutilon theophrasti); experiment: Preemergence herbicidal evaluation; assay type: in vivo, Medic.; details: rated 4-5 weeks after treatment
[3] = tested on: SAGPY (Sagittaria pygmaea); experiment: Flooded paddy, preemergence weed control; assay type: in vivo, L.; details: rated 3-4 weeks after treatment, 0-9 rating scale
Summary of the method: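 Ratings of 0-9 reflect visual comparison with a control for stand, vigor, deformity, size, chlorosis and overall look. Propagules were placed in shallow silt loam (top 0.5 cm) under a continuous 1.5–3 cm flood and grown in the greenhouse.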

[4] = tested on: TRZAWR (Wheat, Winter, cv Riband); experiment: Preemergence herbicidal evaluation; assay type: in vivo, Triticum aestivum; details: rated 4-5 weeks after treatment
Summary of the method: (§2)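 Rating 0–9, visual, vs control; 4–5 wk after spraying seeded cups with compound in aq. acetone; conventional greenhouse care.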

GALAP (Galium aparine) [5] = experiment: Preemergence herbicidal evaluation; assay type: in vivo; details: rated 4-5 weeks after treatment
Summary of the method: as §2

[6] = tested on: ABUTH (Abutilon theophrasti); experiment: Postemergence herbicidal evaluation; assay type: in vivo, Medic.
Summary of the method: as §1

ORYSAT (Rice, Tebonnet) [7] = experiment: Flooded paddy, post-transplant rice tolerance; assay type: in vivo, Oryza sativa, (L.) Tebonnet; details: flooded paddy, post-transplant rice, rated 3-4 weeks after treatment, 0-9 rating scale
Summary of the method: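 Scores (0-9) reflect visual injury relative to untreated plants in flooded silt loam. Each pot held two transplanted ten-day-old seedlings under 1.5 to 3 cm standing water in the greenhouse.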

ORYSAT (Rice, Tebonnet) [8] = experiment: Preemergence herbicidal evaluation; assay type: in vivo, Oryza sativa, (L.) Tebonnet; details: rated 4-5 weeks after treatment
[9] = tested on: CHEAL (Chenopodium album); experiment: Preemergence herbicidal evaluation; assay type: in vivo, L.; details: rated 4-5 weeks after treatment
Summary of the method: as §2

[10] = tested on: CASOB (Cassia obtusifolia); experiment: Preemergence herbicidal evaluation; assay type: in vivo, L.; details: rated 4-5 weeks after treatment
Summary of the method: as §2

[11] = tested on: AMBEL (Ambrosia artemisifolia); experiment: Preemergence herbicidal evaluation; assay type: in vivo, L.; details: rated 4-5 weeks after treatment
Summary of the method: as §2

[12] = tested on: CHEAL (Chenopodium album); experiment: Postemergence herbicidal evaluation; assay type: in vivo, L.
Summary of the method: as §1

[13] = tested on: CASOB (Cassia obtusifolia); experiment: Postemergence herbicidal evaluation; assay type: in vivo, L.
Summary of the method: as §1

[14] = tested on: AMBEL (Ambrosia artemisifolia); experiment: Postemergence herbicidal evaluation; assay type: in vivo, L.
Summary of the method: as §1

[15] = tested on: GLXMAW (Soybean, Williams); experiment: Postemergence herbicidal evaluation; assay type: in vivo, Glycine max, (L.) Merr. cv Williams
Summary of the method: as §1

[16] = tested on: CYPSE (Cyperus serotinus); experiment: Flooded paddy, preemergence weed control; assay type: in vivo, Rottb.; details: rated 3-4 weeks after treatment, 0-9 rating scale
Summary of the method: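 Seeds or propagules were planted 0.5 cm deep in silt loam and flooded to 1.5–3 cm. Compounds in 50/50 v/v aqueous/acetone were pipetted into the flood water at about 0.0080 to 0.1250 kg/ha. After 3–4 weeks in the greenhouse, effect was rated visually on a 0–9 scale versus untreated control.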

[17] = tested on: IPOHE (Ipomoea hederacea); experiment: Preemergence herbicidal evaluation; assay type: in vivo, (L.) Jacq.; details: rated 4-5 weeks after treatment
GALAP (Galium aparine) [18] = experiment: Postemergence herbicidal evaluation; assay type: in vivo
Summary of the method: as §1

[19] = tested on: ECHCG (Echinochloa crus-galli); experiment: Postemergence herbicidal evaluation; assay type: in vivo, (L.) Beau
Summary of the method: as §1

## CCOc1cc(OCC)nc(-c2nsc3ccc(-n4c(=O)cc(C(F)(F)F)n(C)c4=O)cc23)n1 [Compound 43, 3-[3-(4,6-diethoxy-2-pyrimidinyl)-1,2-benzisothiazol-5-yl]-1-methyl-6-(trifluoromethyl)uracil]
ORYSAT (Rice, Tebonnet) [1]; rate 0.0320 kg/ha
  Postemergence herbicidal rating, ORYSAT: 2.0
ORYSAT (Rice, Tebonnet) [1]; rate 0.0620 kg/ha
  Postemergence herbicidal rating, ORYSAT: 2.0
ZEAMX (Corn, Field); rate 0.0320 kg/ha
  Postemergence herbicidal rating, ZEAMX: 4.5
ZEAMX (Corn, Field); rate 0.0620 kg/ha
  Postemergence herbicidal rating, ZEAMX: 4.5
[2]; Rate 0.0620 kg/ha
  Preemergence herbicidal rating ABUTH: 4.0
[2]; Rate 0.1250 kg/ha
  Preemergence herbicidal rating ABUTH: 9.0
[2]; Rate 0.2500 kg/ha
  Preemergence herbicidal rating ABUTH: 9.0
[3]; rate 0.0320 kg/ha
  herbicidal rating, SAGPY: 0.0
[3]; rate 0.1250 kg/ha
  herbicidal rating, SAGPY: 2.0
[4]; Rate 0.0620 kg/ha
  Preemergence herbicidal rating TRZAWR: 1.0
[4]; Rate 0.1250 kg/ha
  Preemergence herbicidal rating TRZAWR: 1.0
[4]; Rate 0.2500 kg/ha
  Preemergence herbicidal rating TRZAWR: 2.0
GALAP (Galium aparine) [5]; Rate 0.0620 kg/ha
  Preemergence herbicidal rating GALAP: 1.0
GALAP (Galium aparine) [5]; Rate 0.1250 kg/ha
  Preemergence herbicidal rating GALAP: 4.0
GALAP (Galium aparine) [5]; Rate 0.2500 kg/ha
  Preemergence herbicidal rating GALAP: 5.0
[6]; rate 0.0320 kg/ha
  Postemergence herbicidal rating, ABUTH: 9.0
[6]; rate 0.0620 kg/ha
  Postemergence herbicidal rating, ABUTH: 9.0
ORYSAT (Rice, Tebonnet) [7]; rate 0.0320 kg/ha
  herbicidal rating, ORYSAT (rice tolerance): 0.0
ORYSAT (Rice, Tebonnet) [7]; rate 0.1250 kg/ha
  herbicidal rating, ORYSAT (rice tolerance): 2.0
ORYSAT (Rice, Tebonnet) [8]; Rate 0.0620 kg/ha
  Preemergence herbicidal rating ORYSAT: 1.0
ORYSAT (Rice, Tebonnet) [8]; Rate 0.1250 kg/ha
  Preemergence herbicidal rating ORYSAT: 2.0
ORYSAT (Rice, Tebonnet) [8]; Rate 0.2500 kg/ha
  Preemergence herbicidal rating ORYSAT: 2.0
[9]; Rate 0.0620 kg/ha
  Preemergence herbicidal rating CHEAL: 9.0
[9]; Rate 0.1250 kg/ha
  Preemergence herbicidal rating CHEAL: 9.0
[9]; Rate 0.2500 kg/ha
  Preemergence herbicidal rating CHEAL: 9.0
[10]; Rate 0.0620 kg/ha
  Preemergence herbicidal rating CASOB: 0.0
[10]; Rate 0.1250 kg/ha
  Preemergence herbicidal rating CASOB: 0.0
[10]; Rate 0.2500 kg/ha
  Preemergence herbicidal rating CASOB: 1.0
[11]; Rate 0.0620 kg/ha
  Preemergence herbicidal rating AMBEL: 0.0
[11]; Rate 0.1250 kg/ha
  Preemergence herbicidal rating AMBEL: 1.0
[11]; Rate 0.2500 kg/ha
  Preemergence herbicidal rating AMBEL: 7.0
[12]; rate 0.0320 kg/ha
  Postemergence herbicidal rating, CHEAL: 6.0
[12]; rate 0.0620 kg/ha
  Postemergence herbicidal rating, CHEAL: 9.0
[13]; rate 0.0320 kg/ha
  Postemergence herbicidal rating, CASOB: 2.0
[13]; rate 0.0620 kg/ha
  Postemergence herbicidal rating, CASOB: 3.0
[14]; rate 0.0320 kg/ha
  Postemergence herbicidal rating, AMBEL: 9.0
[14]; rate 0.0620 kg/ha
  Postemergence herbicidal rating, AMBEL: 9.0
[15]; rate 0.0320 kg/ha
  Postemergence herbicidal rating, GLXMAW: 6.0
[15]; rate 0.0620 kg/ha
  Postemergence herbicidal rating, GLXMAW: 6.0
[16]; rate 0.0320 kg/ha
  herbicidal rating, CYPSE: 0.0
[16]; rate 0.1250 kg/ha
  herbicidal rating, CYPSE: 0.0
[17]; Rate 0.0620 kg/ha
  Preemergence herbicidal rating IPOHE: 0.0
[17]; Rate 0.1250 kg/ha
  Preemergence herbicidal rating IPOHE: 0.0
[17]; Rate 0.2500 kg/ha
  Preemergence herbicidal rating IPOHE: 2.0
GALAP (Galium aparine) [18]; rate 0.0320 kg/ha
  Postemergence herbicidal rating, GALAP: 4.0
GALAP (Galium aparine) [18]; rate 0.0620 kg/ha
  Postemergence herbicidal rating, GALAP: 4.0
[19]; rate 0.0320 kg/ha
  Postemergence herbicidal rating, ECHCG: 2.0
[19]; rate 0.0620 kg/ha
  Postemergence herbicidal rating, ECHCG: 2.0

— patent publication US6706663B2, “Herbicidal 3-heterocyclic substituted benzisothiazole and benzisoxazole compounds” (Wyeth, priority 2000, dated 2004)
